For one compound, IC50 results are on record in doi:10.1101/735704v2, “Selectivity filter instability dominates the low intrinsic activity of the TWIK-1 K2P K^+ Channel” (biorxiv, 2019).

This assay has as its target T1, TWIK-1* (K2P1.1/KCNK1, I293A/I294A trafficking mutant) (Homo sapiens, UniProt O00180, I293A/I294A).
T1 construct: full-length channel with mutated di-isoleucine endocytic retention motif (I293A/I294A), subcloned into pFAW, mRNA-injected Xenopus oocytes, giant excised inside-out patches; homodimer
T1 sequence (O00180 1-336 I293A/I294A): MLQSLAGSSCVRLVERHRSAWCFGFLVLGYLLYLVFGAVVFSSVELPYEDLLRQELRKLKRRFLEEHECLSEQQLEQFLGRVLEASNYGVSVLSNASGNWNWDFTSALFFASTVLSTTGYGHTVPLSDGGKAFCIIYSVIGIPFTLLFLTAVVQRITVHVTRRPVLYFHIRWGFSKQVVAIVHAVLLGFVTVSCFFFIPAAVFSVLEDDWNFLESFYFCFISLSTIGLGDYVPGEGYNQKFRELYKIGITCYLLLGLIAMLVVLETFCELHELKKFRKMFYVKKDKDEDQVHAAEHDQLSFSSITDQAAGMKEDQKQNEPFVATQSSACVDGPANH
Kind of assay: giant excised inside-out patch electrophysiology, Xenopus oocytes, Hill fit. In kind it is cell-based.

Take `CCCCC[N+](CCCCC)(CCCCC)CCCCC` [tetrapentylammonium]: the IC50 (as a rule, the concentration at which inhibition is half-maximal) stood at 3.3 ± 0.1 µM.
